# Earlier results in patent US20020045168A1, “Computer based modeling system” (priority 2000, published 2002).
# Assays:
# Settings in all cases: experimental, native ligand
# AMP aptamer (1am0) = system: AMP aptamer (1am0)
# Arg aptamer (1koc) = system: Arg aptamer (1koc)
# citruline aptamer (1kod) = system: citruline aptamer (1kod)
# FMN aptamer (1fmn) = system: FMN aptamer (1fmn)
# [1] = system: tobramycin aptamer (2tob)
structure (smiles),measurement,setting,value
"Nc1ncnc2c1ncn2[C@@H]1O[C@H](COP(=O)(O)O)[C@@H](O)[C@H]1O [AMP, adenosine monophosphate]",Exptl ΔGbind,AMP aptamer (1am0),−28.5 kJmol^−1
"N=C(N)NCCC[C@H](N)C(=O)O [Arginine, arginine]",Exptl ΔGbind,Arg aptamer (1koc),−28.5 kJmol^−1
"NC(=O)NCCC[C@H](N)C(=O)O [Citruline, citruline]",Exptl ΔGbind,citruline aptamer (1kod),−28.5 kJmol^−1
"Cc1cc2nc3c(=O)[nH]c(=O)nc-3n(C[C@H](O)[C@H](O)[C@H](O)COP(=O)(O)O)c2cc1C [Fmn, flavin mononucleotide]",Exptl ΔGbind,FMN aptamer (1fmn),−30.1 kJmol^−1
"NC[C@H]1O[C@H](O[C@H]2[C@H](O)[C@@H](O[C@H]3O[C@H](CO)[C@@H](O)[C@H](N)[C@H]3O)[C@H](N)C[C@@H]2N)[C@H](N)C[C@@H]1O [Tobramycin, tobramycin]",Exptl ΔGbind,[1],−45.2 kJmol^−1
